The record followed here is ChEMBL document CHEMBL5120771, “Synthesis, equilibrium, and biological study of a C-7 glucose boronic acid derivative as a potential candidate for boron neutron capture therapy” (Bioorg Med Chem, 2022).

The subject of data set [1] is Fibroblast. Nature of the data set: Cytotoxicity against human fibroblasts assessed as reduction in cell viability at 0.01 to 3 mM measured after 72 hrs by MTT assay relative to control. Format: toxicity, cell-based. Conditions: 3000 µM, dose 0.01-3 mM. In general terms: Formazan colour is commonly taken as a measure of viable cells.
Data set [2] can be described thus: Drug uptake in human D54 cells assessed as boron accumulation at 1 mM measured after 24 hrs per mg of cell pellet by ICP-MS analysis (reference value: 0.15 +/- 0.19 ng/mg). Format: ADME, cell-based. Particulars: d54, 24 h, 1000 µM.
Data set [3] can be described thus: Drug uptake in human D54 cells assessed as boron accumulation at 1 mM measured after 2 hrs per mg of cell pellet by ICP-MS analysis (reference value: 0.15 +/- 0.19 ng/mg). Format: ADME, cell-based. Particulars: d54, 2 h, 1000 µM.
The test system of data set [4] is Fibroblast. The data set can be described thus: Cytotoxicity against human fibroblasts assessed as reduction in cell viability at 0.01 to 3 mM measured after 24 hrs by MTT assay. Format: toxicity, cell-based. Particulars: 3000 µM, dose 0.01-3 mM.
Data set [5] in a line: Drug uptake in human fibroblasts assessed as boron accumulation at 1 mM measured after 24 hrs per mg of cell pellet by ICP-MS analysis (reference value: 0.30 +/- 0.09 ng/mg). Format: ADME, cell-based. Particulars: fibroblast, 1000 µM.
The subject of data set [6] is D54 cell line. The data set can be described thus: Cytotoxicity against human D54 cells assessed as cell killing at 1 mM measured after 72 hrs by MTT assay. Format: functional.

As for `N[C@@H](Cc1ccc(B(O)O)cc1)C(=O)O`, the Activity in data set [1] is on record as -19%.
As to `OB1CC[C@H]2OC(O)[C@H](O)[C@@H](O)[C@@H]2O1` (some centres not stated), the Activity in data set [1] is -10%; in data set [4] it was “Non-Toxic”; in data set [6] it was 15%. In addition, the Drug uptake in data set [2] was found to be 6 ng/mg; in data set [3], 3 ng/mg; in data set [5], 0.85 ng/mg.
